The subject of data set [1] is L5178Y. The data set can be described thus: Reversal of multidrug resistance in mouse L5178Y cells transfected with human MDR1 assessed as reversal of rhodamine 123 accumulation at 50 ug/ml incubated for 30 mins by flow cytometry. The format is functional, cell-based. As to conditions: dose 50.0 µg/ml. (A flow cytometer gives signals particle by particle.)
The target of data set [2] is Epidermal growth factor receptor (Homo sapiens, UniProt P00533). The data set can be described thus: Inhibition of recombinant 6His-tagged EGFR cytoplasmic domain (645 to 1186 residues) (unknown origin) autophosphorylation expressed in baculovirus infected Sf9 insect cells preincubated for 10 mins followed by ATP and MgCl2 addition measured after 60 mins by DELFIA/time-resolved fluorometric analysis. The conditions noted are these: sf9.
Epidermal growth factor receptor, sequence (P00533 whole entry, the tested form may be a part): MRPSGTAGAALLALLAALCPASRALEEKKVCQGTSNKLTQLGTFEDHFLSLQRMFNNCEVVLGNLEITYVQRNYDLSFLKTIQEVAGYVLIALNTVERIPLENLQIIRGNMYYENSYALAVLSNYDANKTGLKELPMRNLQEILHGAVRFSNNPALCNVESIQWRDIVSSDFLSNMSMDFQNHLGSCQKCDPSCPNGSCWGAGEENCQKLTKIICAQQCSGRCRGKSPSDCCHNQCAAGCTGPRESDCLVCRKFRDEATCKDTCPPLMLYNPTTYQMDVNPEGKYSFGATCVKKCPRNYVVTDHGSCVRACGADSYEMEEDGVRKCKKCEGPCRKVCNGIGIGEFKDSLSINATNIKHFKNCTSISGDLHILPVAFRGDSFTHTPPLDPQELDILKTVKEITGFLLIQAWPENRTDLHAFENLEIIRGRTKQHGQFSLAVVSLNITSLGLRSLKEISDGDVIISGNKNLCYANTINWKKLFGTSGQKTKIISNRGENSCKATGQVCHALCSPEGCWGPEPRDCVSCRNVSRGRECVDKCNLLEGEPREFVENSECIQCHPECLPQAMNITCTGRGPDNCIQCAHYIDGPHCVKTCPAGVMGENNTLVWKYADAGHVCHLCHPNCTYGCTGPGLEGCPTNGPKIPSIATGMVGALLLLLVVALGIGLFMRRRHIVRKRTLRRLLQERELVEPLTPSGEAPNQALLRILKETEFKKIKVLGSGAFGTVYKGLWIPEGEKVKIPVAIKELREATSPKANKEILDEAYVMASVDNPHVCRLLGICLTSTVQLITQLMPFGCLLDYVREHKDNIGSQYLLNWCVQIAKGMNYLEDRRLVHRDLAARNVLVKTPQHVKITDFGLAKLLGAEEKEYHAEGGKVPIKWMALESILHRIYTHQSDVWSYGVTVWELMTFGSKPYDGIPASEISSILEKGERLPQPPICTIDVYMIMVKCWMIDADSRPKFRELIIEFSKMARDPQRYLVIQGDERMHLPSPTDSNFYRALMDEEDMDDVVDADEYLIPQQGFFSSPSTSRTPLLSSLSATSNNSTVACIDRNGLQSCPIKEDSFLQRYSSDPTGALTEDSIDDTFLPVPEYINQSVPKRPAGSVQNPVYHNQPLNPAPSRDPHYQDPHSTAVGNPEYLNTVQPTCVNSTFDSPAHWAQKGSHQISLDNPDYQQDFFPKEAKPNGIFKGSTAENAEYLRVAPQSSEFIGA

The subject of data set [3] is PC-3. The data set is described as follows: cells. The conditions noted are these: Homo sapiens, PC-3, 48 h.
Description: Antiproliferative activity against human PC-3 cells assessed as inhibition of cell growth incubated for 48 hrs by propidium iodide staining based fluorometer assay
Data set [4] has as its system A549. The data set is described as follows: Antiproliferative activity against human A549 cells assessed as inhibition of cell growth incubated for 48 hrs by propidium iodide staining based fluorometer assay. In kind it is functional. The conditions noted are these: A549, 48 h.
Data set [5] has as its target Tubulin (Sus scrofa) (UniProt P02554+P02550). The data set is described as follows: Inhibition of pig brain tubulin polymerization at 25 uM measured after 15 mins by fluorescence based turbidimetry. In kind it is tissue-based.
For data set [6], the system named is MIA PaCa-2. The data set is described as follows: Antiproliferative activity against human MIA PaCa-2 cells assessed as inhibition of cell growth incubated for 48 hrs by propidium iodide staining based fluorometer assay. The format is functional. As to conditions: MIA PaCa-2, 48 h.
For data set [7], the system named is L5178Y. The data set can be described thus: Reversal of multidrug resistance in mouse L5178Y cells transfected with human MDR1 assessed as reversal of rhodamine 123 accumulation at 5 ug/ml incubated for 30 mins by flow cytometry. In kind it is functional, cell-based. The conditions noted are these: dose 5.0 µg/ml.
The species entered for data set [8] is Sus scrofa. The data set is described as follows: Induction of pig brain microtubule stabilization at 25 uM measured after 15 mins by fluorescence based turbidimetry. In kind it is tissue-based.
Data set [9] is described as follows: Inhibition of full length mouse GST-tagged BRAF V600E mutant preincubated for 60 mins followed by addition of N-terminal His-tagged full length human MEK1 incubated for 25 mins in presence of ATP by ELISA assay. Background: An ELISA detects its analyte on a solid surface through an enzyme-linked reagent.
Data set [10] concerns PANC-1. The data set is described as follows: cells. As to conditions: Homo sapiens, PANC-1, 48 h.
Description: Antiproliferative activity against human PANC-1 cells assessed as inhibition of cell growth incubated for 48 hrs by propidium iodide staining based fluorometer assay
Data set [11] concerns MCF7. The data set is described as follows: Antiproliferative activity against human MCF7 cells assessed as inhibition of cell growth incubated for 48 hrs by propidium iodide staining based fluorometer assay. The format is functional. As to conditions: MCF7, 48 h.
The nature of data set [12]: Toxicity in mouse L5178Y cells transfected with human MDR1 at 50 ug/ml after short period of incubation by tryptan blue assay. As to conditions: dose 50 µg/ml. The format is cell-based.
The test system of data set [13] is HT-29. The data set can be described thus: cells. The conditions noted are these: Homo sapiens, HT-29, 48 h.
Description: Antiproliferative activity against human HT-29 cells assessed as inhibition of cell growth incubated for 48 hrs by propidium iodide staining based fluorometer assay
Data set [14] can be described thus: Cytotoxicity against human MCF-10A cells assessed as cell viability incubated for 96 hrs by MTT assay. In kind it is toxicity, cell-based. Also noted: concentration or dose not given beside the values. The conditions noted are these: read-out: Activity.
The test system of data set [15] is NCI-H460. The data set is described as follows: cells. As to conditions: Homo sapiens, NCI-H460, 48 h.
Description: Antiproliferative activity against human NCI-H460 cells assessed as inhibition of cell growth incubated for 48 hrs by propidium iodide staining based fluorometer assay

In general, IC50 refers to the concentration that gives 50% inhibition.

Activity calls are given as the source filed them. The calls are words filed in the database; no cut-off is given here.

Tubulin (Sus scrofa), sequence (P02550 whole entry, looked up): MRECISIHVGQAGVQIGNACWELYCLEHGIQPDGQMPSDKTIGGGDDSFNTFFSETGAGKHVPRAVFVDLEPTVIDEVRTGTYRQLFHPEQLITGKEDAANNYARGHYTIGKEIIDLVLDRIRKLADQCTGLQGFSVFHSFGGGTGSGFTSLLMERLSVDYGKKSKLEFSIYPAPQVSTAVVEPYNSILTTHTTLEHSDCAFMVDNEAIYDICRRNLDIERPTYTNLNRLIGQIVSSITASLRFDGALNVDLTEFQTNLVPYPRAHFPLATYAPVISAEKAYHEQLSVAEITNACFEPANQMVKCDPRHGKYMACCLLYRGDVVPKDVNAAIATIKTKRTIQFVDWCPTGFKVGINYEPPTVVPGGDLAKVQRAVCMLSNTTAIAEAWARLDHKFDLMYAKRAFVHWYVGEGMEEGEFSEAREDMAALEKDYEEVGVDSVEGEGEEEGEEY
Tubulin (Sus scrofa), sequence (P02554 whole entry, looked up): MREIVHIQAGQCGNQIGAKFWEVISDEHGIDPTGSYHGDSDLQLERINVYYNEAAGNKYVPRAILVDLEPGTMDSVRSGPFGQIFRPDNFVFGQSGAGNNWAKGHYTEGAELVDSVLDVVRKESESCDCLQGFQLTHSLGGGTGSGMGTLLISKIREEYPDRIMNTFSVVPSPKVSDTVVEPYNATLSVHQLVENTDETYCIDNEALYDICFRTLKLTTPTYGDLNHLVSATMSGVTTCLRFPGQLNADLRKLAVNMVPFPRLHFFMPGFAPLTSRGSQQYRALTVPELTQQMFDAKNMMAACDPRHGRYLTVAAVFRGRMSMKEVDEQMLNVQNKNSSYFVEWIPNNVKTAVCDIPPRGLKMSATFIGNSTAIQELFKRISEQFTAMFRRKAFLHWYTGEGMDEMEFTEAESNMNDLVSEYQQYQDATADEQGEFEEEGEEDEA

Consider `COc1cc(/C=C2\CC(C)C/C(=C\c3cc(OC)c(OC)c(OC)c3Br)C2=NO)c(Br)c(OC)c1OC` (stereo not given), for which the outcome in data set [1], in [7] and in data set [8] was inactive. Also, the IC50 was determined as 0.5 µM in [2]; 0.4 µM in [3]; 0.3 µM in [4]; 0.7 µM in data set [6]; 2.7 µM in data set [9]; 0.2 µM in [10]. Also, the IC50 in data set [11], in [13] and in data set [15] was 0.4 µM throughout. The inhibition result in data set [5] was “Active”. For the same compound, in data set [12], the Activity entry is listed as “Non-Toxic”. The viability at 96 h in [14] came to 98%.

The values above are taken from ChEMBL document CHEMBL5257024, “Synthesis of α,β-Unsaturated Carbonyl-Based Compounds, Oxime and Oxime Ether Analogs as Potential Anticancer Agents for Overcoming Cancer Multidrug Resistance by Modulation of Efflux Pumps in Tumor Cells” (J Med Chem, 2016).
